The source of these data is patent US7312219B2, “Heteroaromatic inhibitors of fructose 1,6-bisphosphatase” (Metabasis Therapeutics, Inc., priority 1998, dated 2007).

For data set [1], the target named is T1, human liver FBPase (Homo sapiens, UniProt P09467).
T1 construct: made in house; host or cells: E. coli BL21
T1 sequence (P09467 2-338 limits assumed): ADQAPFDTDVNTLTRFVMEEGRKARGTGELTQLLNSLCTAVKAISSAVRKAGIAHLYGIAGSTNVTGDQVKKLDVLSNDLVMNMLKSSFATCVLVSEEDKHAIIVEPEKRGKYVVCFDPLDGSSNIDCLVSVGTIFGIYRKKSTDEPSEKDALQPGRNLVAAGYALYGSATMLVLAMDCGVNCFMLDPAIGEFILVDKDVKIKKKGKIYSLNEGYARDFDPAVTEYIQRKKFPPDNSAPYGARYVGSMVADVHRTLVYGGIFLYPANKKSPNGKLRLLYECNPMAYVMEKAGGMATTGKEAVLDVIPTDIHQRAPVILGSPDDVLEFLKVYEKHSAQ
In words: Inhibition of Human Liver FBPase. The class given is biochemical. The conditions noted are these: read-out: IC50 (hlFBPase).

In data set [2] the target is T2, rat liver FBPase (Rattus norvegicus, UniProt P19112).
T2 sequence (P19112 2-363 limits assumed): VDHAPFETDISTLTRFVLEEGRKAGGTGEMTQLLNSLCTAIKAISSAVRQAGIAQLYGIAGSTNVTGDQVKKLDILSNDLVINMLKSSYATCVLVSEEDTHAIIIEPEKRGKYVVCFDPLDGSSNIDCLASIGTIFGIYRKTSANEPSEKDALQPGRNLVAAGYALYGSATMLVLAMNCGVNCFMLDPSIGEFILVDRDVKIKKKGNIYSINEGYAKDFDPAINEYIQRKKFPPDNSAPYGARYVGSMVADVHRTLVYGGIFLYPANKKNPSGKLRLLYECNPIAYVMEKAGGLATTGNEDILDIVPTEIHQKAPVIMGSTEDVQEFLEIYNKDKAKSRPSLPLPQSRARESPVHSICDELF
The data set is described as follows: Inhibition of Rat Liver FBPase.
Experimental: Enzymatic activity was measured spectrophotometrically in reactions that coupled the formation of product (fructose 6-phosphate) to the reduction of dimethylthiazoldiphenyltetrazolium bromide (MTT) via NADP^+ and phenazine methosulfate (PMS), using phosphoglucose isomerase and glucose 6-phosphate dehydrogenase as the coupling enzymes.
E. coli strain BL21 transformed with a rat liver FBPase-encoding plasmid was obtained from Dr. M. R. El-Maghrabi at the State University of New York at Stony Brook.

A short description of data set [3]: Analysis of Drug Levels and Liver Accumulation in Rats. The conditions noted are these: fasted rats, 10 mgs/kg i.v., one hour post injection, liver. The class given is in vivo, rat. As to the method: The compound was dissolved in water and the solution adjusted to neutrality with NaOH. One hour post injection rats were anesthetized with halothane and a liver biopsy (approx. 1 g) was taken as well as a blood sample (2 ml) from the posterior vena cava. A heparin flushed syringe and needle were used for blood collection. The liver sample was immediately homogenized in ice-cold 10% perchloric acid (3 ml), centrifuged, and the supernatant neutralized with ⅓rd volume of 3 M KOH/3 M KHCO3. […] Plasma was prepared from the blood sample by centrifugation and extracted by addition of methanol to 60% (v/v). The methanolic extract was clarified by centrifugation and filtration and then analyzed by HPLC as described above.

Data set [4] addresses Porcine heart AMPDA. The data set is described as follows: AMP Site/Enzyme Selectivity: Adenosine Monophosphate Deaminase. The class given is biochemical. The conditions noted are these: read-out: AMP Deaminase (inh.).
For data set [5], the target named is T3, Glycogen Phosphorylase (rabbit muscle) (Oryctolagus cuniculus, UniProt P00489).
T3 construct: Enzyme (rabbit muscle) was purchased from Sigma; purchased Sigma; host or cells: rabbit muscle
T3 sequence (P00489 2-843 limits assumed): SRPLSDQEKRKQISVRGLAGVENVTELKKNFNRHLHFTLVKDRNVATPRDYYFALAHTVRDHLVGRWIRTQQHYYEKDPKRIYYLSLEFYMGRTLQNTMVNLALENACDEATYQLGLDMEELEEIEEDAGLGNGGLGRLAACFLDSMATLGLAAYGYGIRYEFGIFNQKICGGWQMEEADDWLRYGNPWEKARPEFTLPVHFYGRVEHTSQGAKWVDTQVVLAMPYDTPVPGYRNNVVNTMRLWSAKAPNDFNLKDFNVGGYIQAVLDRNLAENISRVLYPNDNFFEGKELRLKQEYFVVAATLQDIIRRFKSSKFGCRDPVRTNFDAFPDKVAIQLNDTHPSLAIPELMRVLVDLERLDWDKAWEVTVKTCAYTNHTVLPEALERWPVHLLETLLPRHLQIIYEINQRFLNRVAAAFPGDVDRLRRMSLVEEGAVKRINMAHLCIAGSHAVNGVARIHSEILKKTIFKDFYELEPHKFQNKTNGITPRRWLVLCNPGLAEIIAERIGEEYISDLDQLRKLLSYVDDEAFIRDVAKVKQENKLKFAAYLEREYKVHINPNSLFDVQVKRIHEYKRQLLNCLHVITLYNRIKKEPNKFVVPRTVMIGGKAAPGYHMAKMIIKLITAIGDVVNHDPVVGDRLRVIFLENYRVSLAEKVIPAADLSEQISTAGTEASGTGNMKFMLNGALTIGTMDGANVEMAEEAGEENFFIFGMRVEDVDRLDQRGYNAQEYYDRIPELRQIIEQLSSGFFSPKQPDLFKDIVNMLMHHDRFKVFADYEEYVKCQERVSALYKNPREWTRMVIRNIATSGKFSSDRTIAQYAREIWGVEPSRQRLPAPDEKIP
In words: AMP Site/Enzyme Selectivity: Glycogen Phosphorylase. The conditions noted are these: activation; read-out: Glycogen Phosphorylase (act.). The class given is biochemical.

Data set [6] has as its system Fasted Rats. In words: Blood Glucose Lowering Following Intravenous Administration to Fasted Rats. The class given is in vivo, rat. The conditions noted are these: Rattus norvegicus, iv; 18 h fasted Sprague Dawley rats, 10 mg/kg i.v., 1 hour, relative to saline-treated controls. As to the method:
Inhibitors were disolved in water and the solution adjusted to neutrality with NaOH. Blood samples were obtained from the tail vein of conscious animals just prior to injection and after 1 hour. Blood glucose was measured using a HemoCue Inc. glucose analyzer according to the instructions of the manufacturer.

Data set [7] addresses T4, Adenylate Kinase (rabbit muscle) (Oryctolagus cuniculus, UniProt P00569).
T4 construct: Enzyme (rabbit muscle) was purchase from Sigma; purchased Sigma; host or cells: rabbit muscle
T4 sequence (P00569 1-194): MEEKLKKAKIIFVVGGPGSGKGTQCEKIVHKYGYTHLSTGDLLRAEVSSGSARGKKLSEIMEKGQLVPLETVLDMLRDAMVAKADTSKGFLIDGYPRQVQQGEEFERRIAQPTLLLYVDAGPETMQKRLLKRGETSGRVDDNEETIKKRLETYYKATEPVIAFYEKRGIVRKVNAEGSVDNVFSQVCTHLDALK
In words: AMP Site/Enzyme Selectivity: Adenylate Kinase. The class given is biochemical. The settings on record: read-out: Adenylate Kinase (inh.).

Data set [8] has as its target T5, Human adenosine kinase (Homo sapiens, UniProt P55263).
T5 construct: made in house; host or cells: E. coli
In words: AMP Site/Enzyme Selectivity: Adenosine Kinase. The class given is biochemical. The conditions noted are these: read-out: Adenosine Kinase (inh.).

Data set [9] deals with Fasted Rat. In words: Glucose Lowering Following Oral Administration to the Fasted Rat. The class given is in vivo. The settings on record: oral gavage, 18-hour fasted rats, relative to saline controls. Here is the method:
Compounds were administered by oral gavage to 18-hour fasted, Sprague Dawley rats (250–300 g, n =3/4/group). Phosphonic acids were prepared in deionized water, and the solution adjusted to neutrality with solidum hydroxide. Prodrugs were dissolved in polyethylene glycol (mw 400). […] The table below indicates the maximum glucose lowering achieved relative to control animals dosed with saline.

The nature of data set [10]: Estimation of the Oral Bioavailability of Phosphonic Acids and their Prodrugs. The class given is in vivo, rat. The settings on record: fasted rats, oral 10–50 mg/kg, 24 h urinary recovery of phosphonic acid, oral vs intravenous; for bioavailability: Sprague-Dawley, rat, urine. Here is the method:
Phosphonic acids were dissolved in water, and the solution adjusted to neutrality with sodium hydroxide. Prodrugs were dissolved in 10% ethanol/90% polyethlene glycol (mw 400). Compound was administered by oral gavage to 18-hour fasted Sprague-Dawley rats (220–250 g) at doses ranging from 10–50 mg/kg. The rats were subsequently placed in metabolic cages and urine was collected for 24 hours. The quantity of phosphonic acid excreted into urine was determined by HPLC analysis as described in Example G. In a separate study, urinary recovery was determined following intravenous (tail vein) administration of compound (in the case of the prodrugs, the appropriate parent phosphonic acid was administered i.v.).

In data set [11] the test system is Gluconeogenesis in Rat Hepatocytes. In words: Inhibition of Gluconeogenesis in Rat Hepatocytes. The class given is cell-based. The conditions noted are these: 10 mM lactate, 1 mM pyruvate, 1 hour incubation, read-out: IC50 Glucose Production. Here is the method:
Hepatocytes were prepared from overnight fasted Sprague-Dawley rats (250–300 g) according to the procedure of Berry and Friend (Berry, M. N., Friend, D. S., 1969, J. Cell. Biol. 43, 506–520) as modified by Groen (Groen, A. K., Sips, H. J., Vervoorn, R. C., Tager, J. M. , 1982, Eur. J. Biochem. 122, 87–93). Hepatocytes (75 mg wet weight/ml) were incubated in 1 ml Krebs-bicarbonate buffer containing 10 mM Lactate, 1 mM pyruvate, 1 mg/ml BSA, and test compound concentrations from 1 to 500 μM. Incubations were carried out in a 95% oxygen, 5% carbon dioxide atmosphere in closed, 50-ml Falcon tubes submerged in a rapidly shaking water bath (37° C.). After 1 hour, an aliquot (0.25 ml) was removed, transferred to an Eppendorf tube and centrifuged. 50 μl of supernatant was then assayed for glucose content using a Sigma Glucose Oxidase kit as per the manufacturer's instructions.

Data set [12] in a line: Oral Absorption Determinations of Prodrugs in the Rat. The settings on record: normal fed rats.

Structures are written as SMILES. Like-named read-outs stand apart in the source and are kept apart here.

T5 sequence (P55263 1-345 isoform P55263-2): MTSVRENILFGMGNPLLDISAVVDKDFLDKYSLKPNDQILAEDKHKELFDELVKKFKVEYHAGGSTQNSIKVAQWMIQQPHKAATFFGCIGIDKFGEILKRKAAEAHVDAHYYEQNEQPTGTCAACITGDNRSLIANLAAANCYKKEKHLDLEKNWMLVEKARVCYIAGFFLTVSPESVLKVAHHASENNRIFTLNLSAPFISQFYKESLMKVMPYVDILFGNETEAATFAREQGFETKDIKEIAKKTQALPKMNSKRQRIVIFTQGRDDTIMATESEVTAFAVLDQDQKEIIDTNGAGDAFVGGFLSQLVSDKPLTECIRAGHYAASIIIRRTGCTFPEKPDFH

A word on the melting point: it is the temperature, or range, at which the solid turns liquid. Compound `CCc1cc(CC)c(-c2ccc(P(=O)(O)O)o2)nc1N` [Compound 15.4, 2-amino-3,5-diethyl-6-[2-(5-phosphono)furanyl]pyridine] displayed a melting point of 217 to 218 °C.

Compound `CCCc1cnc(N)nc1-c1ccc(P(=O)(O)O)o1` [Compound 16.1, 2-amino-5-propyl-4-[2-(5-phosphono)furanyl]pyrimidine] registered a melting point of 258 to 259 °C.

Regarding `Nc1ncnc2c1ncn2[C@@H]1O[C@H](COP(=O)(O)O)[C@@H](O)[C@H]1O` [AMP, reference compound], the results for the IC50 in data set [1] and in data set [2] (read-out: IC50 (rlFBPase)) were 1 µM and 20 µM, respectively.

The term inhibition in vivo denotes the drop in the measured response relative to a control, in per cent. Low readings indicate little suppression, high ones strong suppression. The bioavailability is the share of a dose that reaches the circulation, judged against a reference dose that is usually intravenous. As to `CC(C)Cc1oc(N)nc1-c1ccc(P(=O)(O)O)o1` [Compound 10.1, 2-amino-5-isobutyl-4-[2-(5-phosphono)furanyl]oxazole], the “Liver Conc.” value in data set [3] was determined as 35.6 ± 4.2 nmol/g. In addition, the IC50 in data set [4] was more than 10 µM; in [7] it was more than 500 µM; in [8], more than 10 µM. In addition, the EC50 in [5] is more than 100 µM. Besides, the inhibition in vivo at 10 mg/kg in data set [6] stood at 51%. Also, the “% Glucose Lowering (maximum)” value in data set [9] (dose 90 mg/kg, time point 3 h) stood at 55%. Also, the bioavailability in [10] is 21%.

As to `CC(C)Cc1[se]c(N)nc1-c1ccc(P(=O)(O)O)o1` [Compound 3.70, 2-Amino-5-isobutyl-4-[2-(5-phosphono)furanyl]selenazole], the IC50 came to 0.04 µM in data set [1] and 0.15 µM in data set [2].

For `CC(C)Cc1sc(N)nc1-c1ccc(P(=O)(O)O)o1` [Compound 3.1, 2-amino-5-isobutyl-4-[2-(5-phosphono)furanyl]thiazole], the IC50 was more than 10 µM in data set [4], 2.5 µM in data set [11] (Hepatocyte), more than 500 µM in data set [7] and more than 10 µM in [8]. Also, the EC50 in data set [5] is more than 100 µM. In data set [6], this compound displayed an inhibition in vivo at 10 mg/kg of 65%. Besides, in data set [10], the bioavailability is 4%.

Turning to `CC(C)Cc1sc(N)nc1-c1ccc(P2(=O)OCCC(c3cc(Cl)cc(Cl)c3)O2)o1` (stereo not drawn) [Compound 19.48, 2-Amino-5-isobutyl-4-{2-[5-(1-(3,5-dichlorophenyl)-1,3-propyl)phosphono]furanyl}thiazole], the IC50 in [11] stood at 6.5 µM. The “% excreted i.p.” value in [12] (30 mg/kg intraperitoneal, parent compound 3.1 in 24 h urine) worked out at 11.3%. Also, the “% excreted p.o.” value in data set [12] (30 mg/kg oral gavage, parent compound 3.1 in 24 h urine) stood at 11.6%. Further, in [12] (30 mg/kg, urinary excretion oral vs intraperitoneal), the “% absorption” value is given as 100%. In addition, the “% Glucose Lowering (maximum)” value in data set [9] (dose 30 mg/kg, time point 2 h) came to 63%. Further, the “% Oral bioavailability” value in [10] is recorded as 12%.
